Measured values as given in patent US20020122813A1, “Insect attractants” (priority 1999, published 2002).
“Also recorded” adds a separate entry of the source.

How the values were obtained:
Anopheles gambiae s.s. = assay: wind tunnel landing bioassay on heated glass cylinders with filter papers; type: in vivo; details: for landing response compared to water control, comparative bioassay of α-oxo-carboxylic acids: FIG. 5, 6 replicates
Protocol: Trials used either Aedes aegypti or the Tanzanian KWA strain of Anopheles gambiae s.s., both obtained from the London School of Hygiene and Tropical Medicine. The rearing and bioassay rooms were maintained at 27° C. ±2° and 70% RH ±10%. […] To circumvent this problem we concentrated on investigating the landing responses of An gambiae s.s. on heated glass cylinders treated with sweat and sweat extracts. The bioassay was conducted in a wind tunnel^9 that was connected to 2 identical flight chambers, stainless steel frames 1.0 m long, covered in thin gauge plastic tubing and sealed at both ends with mosquito netting, FIG. 1. Twenty, 5-8 day old An gambiae s.s. females were introduced into each flight chamber. The mosquitoes were activated with 2 pulses of carbon dioxide, diluted with filtered air to give pulses of 0.1% above background. Activated mosquitoes flew upwind and approached heated (34° C., human skin temperature) glass cylinders to which strips of filter paper were attached. […] All bioassays began on the 3rd hour of the night period (21.00 h). To collect sweat, strips of filter paper were strapped around the leg, just above the ankle, of a human volunteer for 24 h. A strip of sweat impregnated filter paper was placed onto one cylinder and a filter paper dampened with […] of distilled water was placed onto the second, the control, cylinder The bioassay was repeated 6 times, the position of the sweat and the control filter papers alternated between bioassays. […] The response to the sweat declined during the bioassay, FIG. 3A, and is probably due to the evaporation of behaviourally active volatiles.

Aedes aegypti = assay: as above; type: in vivo; details: in water at 1 μg/μl; FIG. 4
Protocol: Trials used either Aedes aegypti or the Tanzanian KWA strain of Anopheles gambiae s.s., both obtained from the London School of Hygiene and Tropical Medicine. The rearing and bioassay rooms were maintained at 27° C. ±2° and 70% RH ±10%. The rearing room was kept on a 12/12 light dark cycle of 170 Wm^−2 and 0.3 Wm^−2 respectively with a 30 minute dusk period of 0.5 Wm^−2 at the day night interface.
To circumvent this problem we concentrated on investigating the landing responses of An gambiae s.s. on heated glass cylinders treated with sweat and sweat extracts. The bioassay was conducted in a wind tunnel^9 that was connected to 2 identical flight chambers, stainless steel frames 1.0 m long, covered in thin gauge plastic tubing and sealed at both ends with mosquito netting, FIG. 1. Twenty, 5-8 day old An gambiae s.s. females were introduced into each flight chamber. The mosquitoes were activated with 2 pulses of carbon dioxide, diluted with filtered air to give pulses of 0.1% above background. Activated mosquitoes flew upwind and approached heated (34° C., human skin temperature) glass cylinders to which strips of filter paper were attached. The number of mosquitoes landing per minute on each filter paper was recorded for 10 min by infra-red sensitive video cameras situated downwind of the flight chambers. All bioassays began on the 3rd hour of the night period (21.00 h). […]

Ae aegypti = details: structural activity relationship study of lactic acid analogues; cited from earlier work

Compound: CCO [ethanol]
- total number of landings (TNL) (Anopheles gambiae s.s.; ethanol vs blank control): 141
- landing response compared to control (significance) (Anopheles gambiae s.s.; ethanol vs blank control, P>0.05): not a significant difference

Compound: CC(=O)C(=O)O [oxopropanoic acid]
- landing response compared to water control, comparative bioassay of α-oxo-carboxylic acids (Anopheles gambiae s.s.): did elicit significant levels of landings

Compound: CCC(=O)C(=O)O [oxobutanoic acid]
- landing response compared to water control, comparative bioassay of α-oxo-carboxylic acids (Anopheles gambiae s.s.): did elicit significant levels of landings

Compound: CC(O)C(=O)O (stereo not drawn) [lactic acid, L(+) lactic acid (2-hydroxypropanoic), reference compound]
- total number of landings (TNL) (Anopheles gambiae s.s.; in ethanol at 0.2 μg/μl vs ethanol control): 167
- landing response compared to control (significance) (Anopheles gambiae s.s.; in ethanol at 0.2 μg/μl vs ethanol control, P>0.05): did not elicit significant levels of landings

Compound: CC(C)C(=O)C(=O)O [3-methyl,2-oxobutanoic acid]
- landing response compared to water control, comparative bioassay of α-oxo-carboxylic acids (Anopheles gambiae s.s.): did elicit significant levels of landings

Compound: CCCC(=O)C(=O)O [2-oxopentanoic acid]
- landing response compared to water control, comparative bioassay of α-oxo-carboxylic acids (Anopheles gambiae s.s.): greatest response
- time of peak of landing response (Anopheles gambiae s.s.; during 10 min bioassay): 4 min
- total number of landings (TNL) (Anopheles gambiae s.s.; in water at 1 μg/μl vs water control): 352
- landing response compared to control (significance) (Anopheles gambiae s.s.; in water at 1 μg/μl vs water control, P<0.001): did elicit significant levels of landings
- landing response (significance) (Aedes aegypti): elicited significant levels of landings; also recorded: did elicit significant levels of landings
- attractiveness relative to lactic acid (Ae aegypti): as attractive as lactic acid
